# Molecular target: T1, POLγA:A467T (Homo sapiens, UniProt P54098, A467T)
# T1 sequence (P54098 1-1239 A467T): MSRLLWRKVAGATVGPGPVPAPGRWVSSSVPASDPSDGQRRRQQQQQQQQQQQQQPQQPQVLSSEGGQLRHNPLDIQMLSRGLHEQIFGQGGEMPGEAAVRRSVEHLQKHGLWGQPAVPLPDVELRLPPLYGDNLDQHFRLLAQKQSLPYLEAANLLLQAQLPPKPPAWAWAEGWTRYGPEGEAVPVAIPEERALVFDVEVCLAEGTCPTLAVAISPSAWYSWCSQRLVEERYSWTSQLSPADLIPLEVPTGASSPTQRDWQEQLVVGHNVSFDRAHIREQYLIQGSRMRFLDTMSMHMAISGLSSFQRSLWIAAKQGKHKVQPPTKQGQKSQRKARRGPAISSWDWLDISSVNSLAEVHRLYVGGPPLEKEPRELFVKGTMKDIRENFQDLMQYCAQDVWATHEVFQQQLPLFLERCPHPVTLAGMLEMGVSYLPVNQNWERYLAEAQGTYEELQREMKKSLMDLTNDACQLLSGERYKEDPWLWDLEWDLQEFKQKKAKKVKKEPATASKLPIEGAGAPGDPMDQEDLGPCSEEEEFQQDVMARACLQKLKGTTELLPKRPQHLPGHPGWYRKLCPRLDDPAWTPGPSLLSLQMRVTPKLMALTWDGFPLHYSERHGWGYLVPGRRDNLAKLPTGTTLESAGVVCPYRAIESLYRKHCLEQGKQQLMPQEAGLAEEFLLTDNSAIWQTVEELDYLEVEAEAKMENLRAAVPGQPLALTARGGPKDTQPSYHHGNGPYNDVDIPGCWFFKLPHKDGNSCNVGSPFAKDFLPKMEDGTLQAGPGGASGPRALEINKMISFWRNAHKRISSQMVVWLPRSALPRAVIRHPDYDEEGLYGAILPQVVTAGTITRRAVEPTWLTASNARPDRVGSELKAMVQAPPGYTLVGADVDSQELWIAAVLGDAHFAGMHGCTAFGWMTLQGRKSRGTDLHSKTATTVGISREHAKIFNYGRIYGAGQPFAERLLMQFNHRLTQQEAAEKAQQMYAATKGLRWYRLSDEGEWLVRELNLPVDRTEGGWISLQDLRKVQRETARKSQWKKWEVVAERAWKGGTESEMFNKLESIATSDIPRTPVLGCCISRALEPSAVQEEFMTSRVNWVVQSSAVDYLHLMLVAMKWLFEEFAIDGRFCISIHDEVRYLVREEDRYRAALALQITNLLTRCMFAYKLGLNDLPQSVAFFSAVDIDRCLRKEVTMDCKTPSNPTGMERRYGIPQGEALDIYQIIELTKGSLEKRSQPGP
# T1 sequence (Q9UHN1 1-485 partner): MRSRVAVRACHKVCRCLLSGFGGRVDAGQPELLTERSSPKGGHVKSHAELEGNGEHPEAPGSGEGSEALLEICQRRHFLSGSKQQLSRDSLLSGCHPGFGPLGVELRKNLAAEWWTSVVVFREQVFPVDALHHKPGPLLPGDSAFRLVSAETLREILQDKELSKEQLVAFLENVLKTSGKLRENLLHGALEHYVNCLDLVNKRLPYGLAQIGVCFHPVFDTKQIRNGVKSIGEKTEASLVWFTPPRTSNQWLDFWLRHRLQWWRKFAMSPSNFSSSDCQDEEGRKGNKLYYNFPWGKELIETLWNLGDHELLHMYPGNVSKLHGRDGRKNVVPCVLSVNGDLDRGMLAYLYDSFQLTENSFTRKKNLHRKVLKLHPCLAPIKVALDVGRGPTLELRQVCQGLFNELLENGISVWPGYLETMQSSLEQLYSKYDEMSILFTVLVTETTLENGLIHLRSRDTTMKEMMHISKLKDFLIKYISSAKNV
# Assay: DNA polymerization assay, POLγA:A467T mutant
# Type: biochemical
# Conditions: stimulation of polymerase activity, primed M13mp18 ssDNA, 37° C. 2 hours; read-out: A467T AC50
# Procedure: DNA Polymerization Assay to Monitor Effects on Human Wildtype POLγ and Four Disease-Causing Mutant Variants of Human POLγ.
# The ability of small molecules to stimulate the polymerase activity of POLγ was analyzed in a quantitative fluorescence SYBR Green I assay with fluorescence intensity (FI) readout.
# In the presence of dNTPs, wild type human POLγ and mutant derivatives thereof were incubated with single-stranded, circular M13mp18 ssDNA hybridized to a short DNA oligonucleotide that functions as a primer for initiation of DNA synthesis. POLγ and mutant derivatives thereof will extend the primer and use the M13mp18 molecule as a template to synthesize long stretches of double-stranded DNA. SYBR Green I, which is a double-stranded DNA-binding dye, was used to quantify formation of double-stranded DNA in the reaction. When bound to double-stranded DNA, SYBR Green I fluorescence increases by up to 100-fold.
# The assay was performed in the 384-well plate format. Upon addition of compounds, changes in double-stranded DNA synthesis activity can be monitored by following effects on fluorescent intensity.
# The reactions also contained the accessory POLγB subunit, and the human mitochondrial single-stranded DNA binding protein (mtSSB).
# The DNA template mixture used in the assay contained 0.5 nM primed M13 mp18 ssDNA, 400 nM mtSSB, 0.1 mM Tris-HCl (pH 8.0), 0.1 mM dNTP, 10 mM MgCl2, 0.1 mg/mL BSA, 1 mM TCEP solution, and 0.02% Triton X-100. The DNA template mixture for the wild type protein contained either 100 μM dNTP, 1 μM dNTP, or 0.1 μM dNTP, designated in Table 2 as 100 μM, 1 μM, and 0.1 μM, respectfully.
# Microplates with compounds (0.1 μL in each well) to be tested in the assay were prepared from 10 mM compound stocks in 100% DMSO, and equal amounts of DMSO without any compound were added to positive and negative control wells.
# The protein mixture was dispensed (5 μL into each well) into compound plates and incubated at 37° C. for 15 minutes. After incubation, 5 μL of the DNA template mixture was dispensed into each well. The plates were then incubated at 37° C. for 2 hours.
# During incubation, a combined stop buffer and detection reagent solution was prepared. The buffer contained 25 mM EDTA (pH 8.0), 0.02% Triton X-100, and SYBR Green I [Invitrogen] diluted 10,000× (for fluorescent readout). EDTA will stop the enzymatic reaction by chelating magnesium ions.
row,Compound,AC50 [µM]
1,"O=S(=O)(Nc1csc(-c2ccccc2)n1)c1ccc(F)c(F)c1 [Example 122, 3,4-difluoro-N-(2-phenylthiazol-4-yl)benzenesulfonamide]",> 100
2,"O=S(=O)(Nc1csc(-c2ccccc2)n1)c1ccc(C(F)(F)F)cc1 [Example 127, N-(2-phenylthiazol-4-yl)-4-(trifluoromethyl)benzenesulfonamide]",> 100
3,"O=S(=O)(Nc1csc(-c2ccccc2)n1)c1cccc2nccnc12 [Example 128, N-(2-phenylthiazol-4-yl)quinoxaline-5-sulfonamide]",> 100
4,"Cc1cc(S(=O)(=O)N[C@H]2CCCN(C(=O)c3ccccc3)C2)c(C)cc1Cl [Example 129, (S)-N-(1-benzoylpiperidin-3-yl)-4-chloro-2,5-dimethylbenzenesulfonamide]",> 100
5,"Cc1cc(S(=O)(=O)N[C@H]2CCCN(C(=O)N3CCCC3)C2)c(C)cc1Cl [Example 130, (S)-4-chloro-2,5-dimethyl-N-(1-(pyrrolidinee-1-carbonyl)piperidin-3-yl)benzenesulfonamide]",> 100
6,"Cc1cc(S(=O)(=O)Nc2nsc(-c3ccccc3)n2)c(C)cc1Cl [Example 131, 4-chloro-2,5-dimethyl-N-(5-phenyl-1,2,4-thiadiazol-3-yl)benzenesulfonamide]",> 100
7,"Cc1cc(S(=O)(=O)Nc2nc(-c3ccccc3)ns2)c(C)cc1Cl [Example 132, 4-chloro-2,5-dimethyl-N-(3-phenyl-1,2,4-thiadiazol-5-yl)benzenesulfonamide]",> 100
8,"Cc1cc(S(=O)(=O)Nc2cccc(C(=O)N3CCC[C@@H]3C)c2)c(C)cc1Cl [Example 133, (S)-4-chloro-2,5-dimethyl-N-(3-(2-methylpyrrolidine-1-carbonyl)phenyl)benzenesulfonamide]",> 100
9,"O=S(=O)(Nc1csc(-c2ccccc2)n1)c1ccc2ncsc2c1 [Example 137, N-(2-phenylthiazol-4-yl)benzo[d]thiazole-6-sulfonamide]",> 100
10,"O=S(=O)(Nc1csc(-c2ccccc2)n1)c1ccccn1 [Example 139, N-(2-phenylthiazol-4-yl)pyridine-2-sulfonamide]",> 100

# Second part, the compound after the results:
row,AC50 [µM],Compound
1,> 100,"Cc1ccc(S(=O)(=O)Nc2csc(-c3ccccc3)n2)c(C)c1 [Example 123, 2,4-dimethyl-N-(2-phenylthiazol-4-yl)benzenesulfonamide]"
2,> 100,"Cc1cc(F)ccc1S(=O)(=O)Nc1csc(-c2ccccc2)n1 [Example 124, 4-fluoro-2-methyl-N-(2-phenylthiazol-4-yl)benzenesulfonamide]"
3,8,"O=S(=O)(Nc1csc(-c2ccccc2)n1)c1ccccc1Cl [Example 125, 2-chloro-N-(2-phenylthiazol-4-yl)benzenesulfonamide]"
4,32,"O=S(=O)(Nc1csc(-c2ccccc2)n1)c1ccc(F)cc1Cl [Example 126, 2-chloro-4-fluoro-N-(2-phenylthiazol-4-yl)benzenesulfonamide]"
5,3,"Cc1ccc(C)c(S(=O)(=O)Nc2csc(-c3ccccc3)n2)c1 [Example 134, 2,5-dimethyl-N-(2-phenylthiazol-4-yl)benzenesulfonamide]"
6,32,"Cc1cc(Cl)ccc1S(=O)(=O)Nc1csc(-c2ccccc2)n1 [Example 135, 4-chloro-2-methyl-N-(2-phenylthiazol-4-yl)benzenesulfonamide]"
7,5,"Cc1cc(S(=O)(=O)Nc2csc(-c3ccccc3)n2)c(Cl)cc1F [Example 136, 2-chloro-4-fluoro-5-methyl-N-(2-phenylthiazol-4-yl)benzenesulfonamide]"
8,> 100,"O=S(=O)(Nc1csc(-c2ccccc2)n1)c1ccc(Cl)cc1Cl [Example 138, 2,4-dichloro-N-(2-phenylthiazol-4-yl)benzenesulfonamide]"
9,> 100,"O=S(=O)(Nc1csc(-c2ccccc2)n1)c1ccc(F)cc1F [Example 140, 2,4-difluoro-N-(2-phenylthiazol-4-yl)benzenesulfonamide]"

# From patent US20260138961A1, “MODULATORS OF MITOCHONDRIAL DNA REPLICATION” (Pretzel Therapeutics, Inc., priority 2022, published 2026)
